# Measured values published in patent US20240246920A1, “TRIAZOLE DERIVATIVES WITH ANTIFUNGAL ACTIVITY” (King's College London, priority 2020, published 2024).
# Like-named read-outs stand apart in the source and are kept apart here.
# Tests used:
# [1] = system: C. parapsilosis NCPF3209; experiment: microbe, parasite or virus in culture; assay type: cell-based, Candida parapsilosis; conditions: Lodderomyces parapsilosis
# Protocol: (§1) The minimum inhibitory concentration of test compounds were determined in a panel of Candida species (see Table 4 below), using the a serial dilution method in 96-well plates using the following protocol.
# (§2) Starter cultures of fungal strains to be tested were grown in 3 mL of RPMI 2% glucose media incubated at 37° C. with shaking at 200 rpm overnight. The culture media used was 900 mL H2O; 10.4 g RPMI 1640 (with L-glutamine and a pH indicator but without bicarbonate); 34.5 g MOPS and 18 g glucose. The pH of the media was adjusted to 7.0 with 1 M sodium hydroxide.
# (§3) Solutions of the compound to be tested were prepared by dissolving the compound in DMSO and subsequently into media to the desired concentrations. […] The last two rows of each plate were control rows containing the culture media alone and the media plus fungi.
# (§4) The fungi starter cultures were diluted 1:10 in water in cuvettes. This was then further diluted to an optical density (OD600) of 0.01 in media. 100 μL of the fungi was added to each well giving a starting concentration of fungus of 0.5-5×10^5/mL. One species of fungus was used on each plate. The plates were then held at 37° C. for 24 hours.
# (§5) A plate reader was used to measure growth in each well at OD530 nm and the MIC was determined for each test compound. The MIC is defined as the lowest concentration giving rise to inhibition of ≥50% of that of the drug-free control well containing the fungus and media.
# [2] = system: C. glabrata NCPF8018; experiment: Candida panel MIC, serial dilution in 96-well plates; assay type: cell-based, Candida glabrata; conditions: Nakaseomyces glabratus
# Protocol: as §1, §2, §3, §4, §5
# [3] = system: C. krusei NCPF3876; experiment: microbe, parasite or virus in culture; assay type: cell-based, Candida krusei; conditions: Pichia kudriavzevii
# Protocol: as §1, §2, §3, §4, §5
# [4] = system: C. tropicalis NCPF8760; experiment: Candida panel MIC, serial dilution in 96-well plates; assay type: cell-based
# Protocol: as §1, §2
# (§6) Solutions of the compound to be tested were prepared by dissolving the compound in DMSO and subsequently into media to the desired concentrations. 200 μL of compound solution was then added to the wells of the 96-well plate using a serial dilution method row-by row of the plate to give a compound concentration gradient across the plate of from 128 μg/mL to 0.25 μg/mL. The last two rows of each plate were control rows containing the culture media alone and the media plus fungi.
# as §4, §5
# [5] = system: C. auris TDG1912; experiment: as above; assay type: cell-based; conditions: Candidozyma auris, read-out: MIC C. auris TDG1912
# Protocol: as §1, §2, §6, §4, §5
# [6] = system: Candida auris TDG1102; experiment: as above; assay type: cell-based; conditions: Candidozyma auris, TDG1102; Table 4, extended panel; 24 hours, ≥50% inhibition; read-out: MIC Candida auris TDG1102
# Protocol: as §1, §2, §6, §4, §5
# [7] = system: Candida auris TDG2512; experiment: as above; assay type: cell-based; conditions: Candidozyma auris, read-out: MIC Candida auris TDG2512
# Protocol: as §1, §2, §6, §4, §5
# [8] = system: C. auris 8971; experiment: as above; assay type: cell-based, Candida auris; conditions: Candidozyma auris, 8971; Table 4, extended panel; 24 hours, ≥50% inhibition; read-out: MIC C. auris 8971
# Protocol: as §1, §2, §3, §4, §5
# (§7) The Candida auris strains shown in Table 7 were either taken from the National Collection of Pathogenic Fungi (NCPF) or collected as part of ongoing surveillance studies. The strains were characterised as follows.
# [9] = system: C. auris 8984; experiment: as above; assay type: cell-based, Candida auris; conditions: Candidozyma auris, 8984; Table 4, extended panel; 24 hours, ≥50% inhibition; read-out: MIC C. auris 8984
# Protocol: as §1, §2, §3, §4, §5, §7
# [10] = system: C. auris 8977; experiment: as above; assay type: cell-based, Candida auris; conditions: Candidozyma auris, 8977; Table 4, extended panel; 24 hours, ≥50% inhibition; read-out: MIC C. auris 8977
# Protocol: as §1, §2, §3, §4, §5, §7
# [11] = system: C. albicans NCPF3281; experiment: as above; assay type: cell-based, Candida albicans; conditions: Candida albicans, read-out: MIC C. albicans NCPF3281
# Protocol: as §1, §2, §6, §4, §5
# [12] = system: Candida auris TDG2506; experiment: microbe, parasite or virus in culture; assay type: cell-based; conditions: Candidozyma auris, TDG2506; Table 4, extended panel; 24 hours, ≥50% inhibition; read-out: MIC Candida auris TDG2506
# Protocol: as §1, §2, §3, §4, §5, §7
# [13] = system: Candida auris TDG2211; experiment: microbe, parasite or virus in culture; assay type: cell-based; conditions: Candidozyma auris, TDG2211; Table 4, extended panel; 24 hours, ≥50% inhibition; read-out: MIC Candida auris TDG2211
# Protocol: as §1, §2, §3, §4, §5, §7
# [14] = NCPF3209, Table 4, common panel, 24 hours, ≥50% inhibition, read-out: MIC C. parapsilosis NCPF3209
# [15] = NCPF8018, Table 4, common panel, 24 hours, ≥50% inhibition, read-out: MIC C. glabrata NCPF8018
# [16] = NCPF3876, Table 4, common panel, 24 hours, ≥50% inhibition, read-out: MIC C. krusei NCPF3876
# [17] = NCPF8760, Table 4, common panel, 24 hours, ≥50% inhibition, read-out: MIC C. tropicalis NCPF8760
# [18] = TDG1912, Table 4, 24 hours, ≥50% inhibition
# [19] = TDG2512, Table 4, extended panel, 24 hours, ≥50% inhibition
# [20] = NCPF3281, Table 4, common panel, 24 hours, ≥50% inhibition
SMILES,"MIC ([1]; NCPF3209, read-out: MIC C. Parapsilosis NCPF3209) [µg/mL]","MIC [1, 14] [µg/mL]","MIC ([2]; NCPF8018, read-out: MIC C. Glabrata NCPF8018) [µg/mL]","MIC [2, 15] [µg/mL]","MIC ([3]; NCPF3876, read-out: MIC C. Krusei NCPF3876) [µg/mL]","MIC [3, 16] [µg/mL]","MIC [4, 17] [µg/mL]","MIC ([4]; NCPF8760, read-out: MIC C. Tropicalis NCPF8760) [µg/mL]","MIC [5, 18] [µg/mL]",MIC [6] [µg/mL],"MIC [7, 19] [µg/mL]",MIC [8] [µg/mL],MIC [9] [µg/mL],MIC [10] [µg/mL],"MIC [11, 20] [µg/mL]",MIC [12] [µg/mL],MIC [13] [µg/mL],"MIC ([5]; TDG1912, 24 h) [µg/mL]","MIC ([7]; TDG2512, 24 h) [µg/mL]","MIC ([11]; NCPF3281, 24 h) [µg/mL]"
"OC(CN1CCC2(CCN(c3ncc(F)cn3)CC2)C1)(Cn1cncn1)c1ccc(F)cc1F (centres unmarked) [Example 7, 2-(2,4-Difluorophenyl)-1-(8-(5-fluoropyrimidin-2-yl)-2,8-diazaspiro[4.5]decan-2-yl)-3-(1H-1,2,4-triazol-1-yl)propan-2-ol]",0.004,0.004,0.25,0.25,0.06,0.06,0.015,0.015,0.12,0.25,0.03,0.03,0.12,0.002,< 0.008,0.5,0.125,,,
CC1CCN(COc2ccc(NC3CCN(CC(O)(Cn4cncn4)c4ccc(F)cc4F)CC3)cc2)CC1 (centres unmarked) [Example 83],,0.06,,8,,4,8,,1 to 4,4,0.25,1,2,1,0.06,0.5 to 2,0.25,,,
Cc1ccc(Oc2ccc(NC3CCN(CC(O)(Cn4cncn4)c4ccc(F)cc4F)CC3)cc2)cc1 (centres unmarked) [Example 85],,0.00391 to 0.0313,,1,,0.0156 to 0.25,0.25,,0.0625,0.0625 to 0.25,0.00391 to 0.0313,0.00195 to 0.125,0.0625 to 0.5,0.015 to 0.03,0.0078,0.0625 to 0.125,0.015 to 0.125,,,
Cc1ccc(-c2ccc(NC3C[C@@H]4CN(CC(O)(Cn5cncn5)c5ccc(F)cc5F)C[C@@H]4C3)cc2)cc1F (some centres unmarked) [Example 99],,≤ 0.03,,8,,1,> 32,,16,16 to 32,0.5,1 to 4,32,1 to 4,≤ 0.03,32,0.125 to 16,,,
OC(CN1CCC(Nc2ccc(OCc3ccncc3)cc2)CC1)(Cn1cncn1)c1ccc(F)cc1F (centres unmarked) [Example 81],,0.00781,,2,,0.125,0.5,,0.0313,0.0625,0.00781,0.0156,0.125,0.0156,0.00781,0.125,0.0313,,,
OC(CN1C[C@H]2CC(Nc3ccc(F)cc3)C[C@H]2C1)(Cn1cncn1)c1ccc(F)cc1F (some centres unmarked) [Example 101],,≤ 0.03,,0.5,,1,4,,1,2,0.125,0.25,4,0.25,≤ 0.03,4,0.125 to 2,,,
OC(CN1CCC2(CCC(Nc3ccc(OCCN4CCOCC4)cc3)CC2)C1)(Cn1cncn1)c1ccc(F)cc1F (centres unmarked) [Example 87],,0.313,,4,,1,2,,,0.5,,0.25,0.25,0.25,,0.125,0.125,0.5,0.0625,0.313
CN1CCC(Oc2ccc(NC3CCN(CC(O)(Cn4cncn4)c4ccc(F)cc4F)CC3)cc2)CC1 (centres unmarked) [Example 98],,0.125,,8,,8,> 8,,> 8,> 8,2,8,> 8,8,0.125,> 8,> 8,,,
"OC(CN1C[C@H]2CC(Nc3ccc(Cc4ccccc4)cc3)C[C@H]2C1)(Cn1cncn1)c1ccc(F)cc1F (stereo partly drawn) [Example 16, 1-((3aR,6aS)-5-((4-benzylphenyl)amino)hexahydrocyclopenta[c]pyrrol-2(1H)-yl)-2-(2,4-difluorophenyl)-3-(1H-1,2,4-triazol-1-yl)propan-2-ol]",,≤ 0.125,,≤ 0.125,,≤ 0.125,1,,1,1,≤ 0.125,≤ 0.125,1,≤ 0.125,≤ 0.125,0.5,≤ 0.125,,,
OC(CN1CCC(Nc2ccc(OCCN3CCCC3)cc2)CC1)(Cn1cncn1)c1ccc(F)cc1F (centres unmarked) [Example 82],,0.25,,32,,8,> 32,,4 to 16,16,1,2 to 8,4,4 to 16,0.25,4,0.5 to 2,,,
"OC(CN1CC2CN(c3ncc(F)cn3)CC2C1)(Cn1cncn1)c1ccc(F)cc1F (centres unmarked) [Example 15, 2-(2,4-difluorophenyl)-1-(5-(5-fluoropyrimidin-2-yl)hexahydropyrrolo[3,4-c]pyrrol-2(1H)-yl)-3-(1H-1,2,4-triazol-1-yl)propan-2-ol]",,0.125,,1,,4,8,,8,8,4,0.5,32,1,0.12,> 128,4,,,
COCCOc1ccc(NC2CCN(CC(O)(Cn3cncn3)c3ccc(F)cc3F)CC2)cc1 (centres unmarked) [Example 96],,0.0156,,4,,0.5,1,,0.125,0.06,4,0.06,0.25,0.06,0.0078 to 0.0156,0.06,0.0156 to 0.06,,,
OC(CN1CCC(N2CCC(Nc3ccc(OCCN4CCOCC4)cc3)CC2)CC1)(Cn1cncn1)c1ccc(F)cc1F (centres unmarked) [Example 92],,2 to 8,,> 32,,> 32,> 32,,32,32,4,16,32,8,2,32,8 to 32,,,
